# In patent US20260097047A1, “Small molecule inhibitors of the ribosome biogenesis factor NVL2” (Board of Regents, The University of Texas System, priority 2023, published 2026):
# Tests used:
# [1] = tested on: HCT116 control and p53 KO cells; test: Cell death by loss in membrane permeability, HCT116 control and p53 KO cells; type: cell-based, human; conditions: five-day treatment
# HCT116 NVL^R403W cells = test: Cell viability counter-screen in compound-resistant HCT116 NVL^R403W cells; type: cell-based, human; conditions: NVL^P307T, NVL^R403W or NVL^H304R cells
# Description: Design and synthesis of benzothiazepine-based NVL inhibitors. […] Analogs were evaluated against the colorectal cancer cell line HCT116, and counter-screened against a compound resistant NVL2^R403W clone. Cytotoxicity in wild-type HCT116 was determined. […] Initial SAR focused on exploring the replacement of the furan ring of initial dibenzothiazepinone hit MM017. We first explored a wide variety of mono- and di-substituted phenyl rings, including a broad spectrum of functionality (F, Cl, alkyl, alkoxy, fluoroalkoxy, CN, formamide, S(O) Me, carboxyl, . . . ). […]
# HCT116 cells were transfected with TransIT-LT (Mirus #MIR2304) according to manufacturer's protocol with a guide RNA (either mock or NVL targeting) in the px330 vector (Addgene, #42230), and 10 nM single stranded deoxyoligonucleotide encoding a specific NVL mutation (see below for specific sequences). […] The resulting cells were evaluated by cresyl violet staining or collected and the relevant NVL mutations were analyzed by either amplicon or sanger sequencing.
# Cell viability assay: In 96-well assay plates (Corning #2903), 2,000 cells were plated per well in 100 μL of medium and allowed to adhere overnight. […] Luminescence (CellTiter-Glo) was recorded using a Synergy 2 microplate reader (BioTek). […]
# [2] = tested on: p53 KO and p21 KO HCT116 cells; test: Growth competition of p53 or p21 knockout versus control HCT116 cells; type: cell-based, human
# Text: To better understand how inhibition of NVL by MM017 leads to cell death, we performed a genome wide pooled CRISPR/Cas9 knockout screen in HCT116 cells using a library of guide RNAs targeting 19,114 genes. Cells were pulsed intermittently with vehicle or MM017 over 21 days, at which point MM017 treated cells had undergone 9.79 fewer population doublings. Massively parallel sequencing of PCR products amplified from genomic DNA was used to determine relative levels of sgRNA sequences to infer the relative impact of each gene on compound sensitivity. […] To confirm whether p53 and p21 are required for the anti-proliferative activity of MM017, we performed a growth competition experiment between cells expressing ZsGreen with either p53 or p21 knockout (KO) and control cells expressing mCherry. Without treatment, the ratio between green and red cells was unchanged over time.
# 902 cancer cell lines = test: PRISM screen across 902 cancer cell lines; type: cell-based; conditions: 902 cancer cell lines, 1,215 compounds
# Text: (§1) Inhibition of 60S ribosome biogenesis is known to induce the stability and upregulation of p53, which could serve as a potential pharmacodynamics marker for MM017 in HCT116 cells. […] We used PRISM (Broad Institute) to evaluate the selectivity of MM017 across 902 cancer cell lines and then correlated this selectivity to 1,215 clinical and pre-clinical compounds in the PRISM database. […] These observations indicate that oxaliplatin and carmofur, like MM017, target ribosome biogenesis.
# To nominate genetic predictors of MM017 sensitivity across different cancer types, we performed a PRISM screen across 902 cancer cell lines with known genotypes (31). […] These findings are consistent with the isogenic CRISPR screen and indicate that p53 is a critical effector for MM017 in cancer cells from multiple lineages and with differing genotypes.
# NVL-AID = test: Viability of NVL^AID/AID cells on auxin-induced NVL degradation; type: cell-based, human
# Text: To study the effect of NVL depletion, we engineered a C-terminal FLAG-epitope auxin-inducible degron (AID) tag into NVL in cells that also express the plant E3 ligase TIR1.
# cleaved caspase-3 = test: Cleaved caspase-3 (apoptosis), HCT116 control and p53 KO cells; type: cell-based, human
# Text: The upregulation of p53 and its effector p21 can arrest cell growth or induce cell death through apoptosis. […] Next, we addressed whether cell death was mediated by an apoptotic pathway by assaying for cleaved caspase-3, a bona fide marker of apoptosis.
# p53 and p21 = p53 and p21 protein levels in HCT116 cells; type: cell-based, human
# Text: as §1
# [3] = tested on: serine 15 phosphorylated p53; test: p53 serine 15 phosphorylation (DNA damage response marker); conditions: MM017 up to 10 μM
# Description: A biochemical marker for activation of the DNA damage response is phosphorylation of serine 15 of p53, which results in increased p53 protein (41). Thus, we compared the impact of MM017, oxaliplatin, and CX-5461 on both p53 upregulation and p53 serine 15 phosphorylation.
smiles,measurement,setting,value
"CC(=O)O[C@H]1C(=O)[C@@]2(C)[C@H]([C@H](OC(=O)c3ccccc3)[C@]3(O)C[C@H](OC(=O)[C@H](O)[C@@H](NC(=O)c4ccccc4)c4ccccc4)C(C)=C1C3(C)C)[C@]1(OC(C)=O)CO[C@@H]1C[C@@H]2O [paclitaxel, reference compound]",cell death in p53 KO versus control cells,[1],cell death irrespective of p53
same,sensitivity of NVL mutant cells compared to NVL^WT,HCT116 NVL^R403W cells,equally sensitive
same,enrichment of p53 or p21 KO cells in growth competition,[2],no competitive advantage
CCCCCCNC(=O)n1cc(F)c(=O)[nH]c1=O [carmofur],correlation (r) of selectivity with MM017,902 cancer cell lines,0.53
"O=C(O)Cc1c[nH]c2ccc(-c3ccccc3)cc12 [Ph-IAA, 5-Phenyl-indole-3-acetic acid]",viability of NVL^AID/AID cells,NVL-AID,reduced viability in a dose-dependent manner
"CN[C@@H]1C[C@H]2O[C@@](C)([C@@H]1OC)n1c3ccccc3c3c4c(c5c6ccccc6n2c5c31)C(=O)NC4 [Staurosporine, reference compound]",cleaved caspase-3,cleaved caspase-3,robust caspase activation in both control and p53 KO cells
"O=C1[O][Pt]2([NH][C@@H]3CCCC[C@H]3[NH]2)[O]C1=O [oxaliplatin, reference compound]",p53 levels in parental HCT116 cells,p53 and p21,dose-dependent increase in the levels of p53
same,serine 15 phosphorylated p53,[3],dose-dependent increase in phosphorylated p53
